Results on 10 compounds are retold here after ChEMBL document CHEMBL1201862, “PubChem BioAssay data set” (2004).

Test systems include IGROV-1; Malme-3M; ACHN; T47D; SF-268; Hs-578T; NCI-H460; MDA-N; MCF7; HT-29; PC-3; SK-MEL-28; A549; UO-31; A498; M14; CCRF-CEM; MDA-MB-435; HOP-62.
Common to all, as to assay: inhibition of tumour cell growth, NCI panel, 48 h

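Briefly, cells in 96-well plates were exposed to five compound concentrations for 48 h, and endpoints were estimated by linear interpolation. GI50 marks 50% less growth.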 The source made the active and inactive calls. No stated cut-off is given here; in the data, active = GI50 up to about 1.1 µM and inactive = higher.

Consider `O=C(O)c1c2c(c(O)c3c1CN(C1CCCCC1)CO3)OCN(C1CCCCC1)C2`, for which the GI50 with IGROV-1 is 74.5 µM (inactive); with Malme-3M, > 100 µM (inactive); in the experiment with ACHN, > 100 µM (inactive); in the experiment with T47D, > 100 µM (inactive); in the experiment on SF-268, 46.3 µM (inactive); in the experiment with Hs-578T it was > 100 µM (inactive). Besides, the GI50 is 19 µM (inactive) in the experiment on NCI-H460; > 100 µM (inactive) in the experiment on MDA-N; 20.1 µM (inactive) in the experiment on MCF7; > 100 µM (inactive) in the experiment on HT-29; > 100 µM (inactive) with PC-3; > 100 µM (inactive) in the experiment on SK-MEL-28. For the same compound, the GI50 with A549 is > 100 µM (inactive); in the experiment with UO-31, > 100 µM (inactive); in the experiment on A498, > 100 µM (inactive); in the experiment with M14 it was > 100 µM (inactive); in the experiment on CCRF-CEM, 10.4 µM (inactive); with MDA-MB-435, 58.1 µM (inactive). Further, the GI50 in the experiment with HOP-62 was 83.2 µM (inactive).

On to `O=c1cc(NNCc2ccccc2)[nH]c(=O)[nH]1`, for which the GI50 in the experiment on IGROV-1 was > 100 µM (inactive); in the experiment on Malme-3M, 80.5 µM (inactive); in the experiment on ACHN, > 100 µM (inactive); with T47D, 0.678 µM (active); in the experiment with SF-268, > 100 µM (inactive); with Hs-578T, 58.1 µM (inactive). Besides, the GI50 in the experiment with NCI-H460, with MDA-N, with MCF7, with HT-29, with PC-3 and in the experiment on SK-MEL-28 was > 100 µM (inactive) each time. For the same compound, the GI50 with A549 is > 100 µM (inactive); in the experiment on UO-31, 74 µM (inactive); in the experiment with A498 it was > 100 µM (inactive); with M14 it was > 100 µM (inactive); in the experiment on CCRF-CEM, > 100 µM (inactive); in the experiment on MDA-MB-435 it was > 100 µM (inactive). Moreover, in the experiment on HOP-62, the GI50 is > 100 µM (inactive).

As to `CC[C@]12C=CCN3CC[C@@]4(c5cc(Br)c(OC)cc5N(C)[C@H]4[C@@](O)(C(=O)N[C@@H](Cc4ccc(O)cc4)C(=O)OC)[C@@H]1O)[C@@H]32`, the GI50 in the experiment on IGROV-1 was 19.5 µM (inactive); with Malme-3M it was 14.1 µM (inactive); with ACHN it was 27.6 µM (inactive); with T47D it was 57.7 µM (inactive); in the experiment on SF-268 it was 13.6 µM (inactive); in the experiment with Hs-578T it was 20.7 µM (inactive). The GI50 with NCI-H460 was 18.2 µM (inactive); with MDA-N, 20 µM (inactive); in the experiment with MCF7, 23.1 µM (inactive); in the experiment with HT-29, 14.6 µM (inactive); in the experiment on PC-3, 39 µM (inactive); in the experiment with SK-MEL-28, > 100 µM (inactive). Further, the GI50 is 25.7 µM (inactive) in the experiment on A549; 27.2 µM (inactive) with UO-31; 18.1 µM (inactive) in the experiment with A498; 28 µM (inactive) in the experiment with M14; 21.6 µM (inactive) in the experiment with CCRF-CEM; 16.4 µM (inactive) in the experiment on MDA-MB-435. Further, the GI50 in the experiment on HOP-62 was 46.5 µM (inactive).

As to `O=C(Nc1cccc(-c2cn3ccccc3n2)c1)c1ccncc1`, the GI50 with IGROV-1 was 40.9 µM (inactive); with Malme-3M it was 29.3 µM (inactive); with ACHN, 41.1 µM (inactive); in the experiment with T47D, 19.2 µM (inactive); with SF-268 it was 41.4 µM (inactive); in the experiment on Hs-578T, 38.1 µM (inactive). Also, the GI50 was 16.1 µM (inactive) in the experiment on NCI-H460; 31.3 µM (inactive) with MDA-N; 31.6 µM (inactive) in the experiment with MCF7; 35.8 µM (inactive) in the experiment with HT-29; 35.9 µM (inactive) in the experiment on PC-3; 48.5 µM (inactive) in the experiment on SK-MEL-28. The GI50 is 44.9 µM (inactive) in the experiment with A549; 43.1 µM (inactive) with UO-31; 76 µM (inactive) in the experiment on A498; 33.7 µM (inactive) with M14; 27.3 µM (inactive) with CCRF-CEM; 31.9 µM (inactive) in the experiment on MDA-MB-435. Further, the GI50 in the experiment on HOP-62 was 33.2 µM (inactive).

As to `COc1cc(-c2ccccc2N)c2cccnc2c1OC`, the GI50 in the experiment with IGROV-1 was 2.97 µM (inactive); with Malme-3M it was 14.9 µM (inactive); in the experiment with ACHN, 3.71 µM (inactive); with T47D it was 4.04 µM (inactive); with SF-268, 3.1 µM (inactive); in the experiment on Hs-578T, 3.05 µM (inactive). The GI50 is 11.1 µM (inactive) in the experiment on NCI-H460; 6.47 µM (inactive) in the experiment with MDA-N; 3.84 µM (inactive) in the experiment with MCF7; 0.74 µM (active) in the experiment with HT-29; 8.55 µM (inactive) in the experiment with PC-3; 17.9 µM (inactive) in the experiment with SK-MEL-28. Besides, the GI50 in the experiment with A549 was 3.69 µM (inactive); with UO-31, 3.8 µM (inactive); in the experiment with A498 it was 14.1 µM (inactive); in the experiment with M14, 6.28 µM (inactive); in the experiment with CCRF-CEM, 3.56 µM (inactive); in the experiment with MDA-MB-435 it was 8.17 µM (inactive). In addition, in the experiment with HOP-62, the GI50 is 5.26 µM (inactive).

In the case of `Cc1cc2cc3c(cc2c(-c2ccc([N+](=O)[O-])cc2)n1)OCO3`, the GI50 with IGROV-1 was 15.5 µM (inactive); with Malme-3M it was 61.1 µM (inactive); in the experiment with ACHN, 29.9 µM (inactive); in the experiment with T47D, 34.9 µM (inactive); with SF-268, 34.6 µM (inactive); in the experiment with Hs-578T, 23.3 µM (inactive). Besides, the GI50 is 29.7 µM (inactive) in the experiment on NCI-H460; 54.2 µM (inactive) in the experiment with MDA-N; 37.8 µM (inactive) in the experiment on MCF7; 56.8 µM (inactive) in the experiment on HT-29; 44.7 µM (inactive) with PC-3; 41.1 µM (inactive) in the experiment with SK-MEL-28. The GI50 is 25.8 µM (inactive) with A549; 13.5 µM (inactive) with UO-31; > 100 µM (inactive) in the experiment on A498; 88.7 µM (inactive) in the experiment on M14; 31.6 µM (inactive) in the experiment with CCRF-CEM; 65.9 µM (inactive) with MDA-MB-435. The GI50 with HOP-62 is 19 µM (inactive).

For `CCOC(=O)C1(C(=O)OCC)OC(C)=NC1(C(=O)OC)C(=O)OC`, the GI50 in the experiment with IGROV-1, with Malme-3M, in the experiment on ACHN, with T47D, in the experiment on SF-268 and in the experiment on Hs-578T was > 100 µM (inactive) throughout. The GI50 in the experiment with NCI-H460 is > 100 µM (inactive); in the experiment with MDA-N, > 100 µM (inactive); in the experiment on MCF7 it was > 61.5 µM (inactive); in the experiment on HT-29 it was > 100 µM (inactive); with PC-3, > 100 µM (inactive); in the experiment with SK-MEL-28 it was > 100 µM (inactive). In addition, the GI50 in the experiment on A549, in the experiment on UO-31, with A498, in the experiment with M14, with CCRF-CEM and with MDA-MB-435 was > 100 µM (inactive) in each case. For the same compound, the GI50 in the experiment with HOP-62 is > 100 µM (inactive).

Take `O=c1ccn([C@@H]2C[C@H]2CO)c(=O)[nH]1`: the GI50 in the experiment with IGROV-1, with Malme-3M, in the experiment with ACHN, in the experiment with T47D, in the experiment on SF-268 and in the experiment on Hs-578T was > 100 µM (inactive) in each case. For the same compound, the GI50 in the experiment with NCI-H460, with MDA-N, with MCF7, in the experiment on HT-29, in the experiment on PC-3 and in the experiment on SK-MEL-28 was > 100 µM (inactive) each time. For the same compound, the GI50 in the experiment on A549, with UO-31, in the experiment with A498, in the experiment with M14, in the experiment on CCRF-CEM and in the experiment on MDA-MB-435 was > 100 µM (inactive) throughout. The GI50 in the experiment with HOP-62 is > 100 µM (inactive).

`O=C(/C=C/c1ccc(O)cc1)c1cc(-c2cc(CCC(=O)c3ccc(O)cc3O)ccc2O)c(O)cc1O`: the GI50 in the experiment with IGROV-1 was 16.2 µM (inactive); with Malme-3M, 24.9 µM (inactive); in the experiment on ACHN it was > 50 µM (inactive); with T47D it was 30.6 µM (inactive); in the experiment on SF-268 it was 22.4 µM (inactive); in the experiment on Hs-578T it was 23.7 µM (inactive). The GI50 with NCI-H460 is 23.8 µM (inactive); with MDA-N, 19.1 µM (inactive); with MCF7, 28.1 µM (inactive); in the experiment on HT-29 it was 14.4 µM (inactive); with PC-3 it was 22.6 µM (inactive); in the experiment with SK-MEL-28, 21.7 µM (inactive). In addition, the GI50 with A549 was > 50 µM (inactive); with UO-31, > 50 µM (inactive); in the experiment with A498 it was 24.8 µM (inactive); in the experiment on M14 it was 41.6 µM (inactive); in the experiment on CCRF-CEM, 13.1 µM (inactive); with MDA-MB-435 it was 17 µM (inactive). Further, the GI50 in the experiment on HOP-62 was 27.4 µM (inactive).

On to `COc1cc2oc(-c3ccc(O)cc3)cc(=O)c2c(OC)c1OC`, for which the GI50 with IGROV-1 was > 100 µM (inactive); in the experiment with Malme-3M, > 100 µM (inactive); with ACHN, > 100 µM (inactive); with T47D, 63.5 µM (inactive); with SF-268, > 100 µM (inactive); with Hs-578T it was > 100 µM (inactive). Besides, the GI50 in the experiment with NCI-H460, in the experiment on MDA-N, in the experiment with MCF7, with HT-29, in the experiment with PC-3 and in the experiment with SK-MEL-28 was > 100 µM (inactive) throughout. Moreover, the GI50 in the experiment with A549, with UO-31, in the experiment on A498, with M14, in the experiment with CCRF-CEM and in the experiment with MDA-MB-435 was > 100 µM (inactive) throughout. Moreover, the GI50 in the experiment on HOP-62 is > 100 µM (inactive).
